Data published in patent US4737504A, “5-fluoro-and 8-fluoro-trimetoquinol compounds and the processes for their preparation” (priority 1986, dated 1988).
Where two headings read alike, the source gives them in different places.

Columns and labels:
adrenergic receptors = conditions: background; cited from earlier work
[1] = biological target: T1, U46619-induced contractions of rat thoracic aorta (Rattus norvegicus, UniProt P34978); test: antagonism of U46619-induced contractions of rat thoracic aorta; type: cell-based, rat (male Sprague-Dawley); conditions: no analog (None); n = 16; read-out: pD2 of U46619 (control) (converted)
T1 construct: A 2-3 cm segment of thoracic aorta was excised; tissue Harlan Industries, Inc., Cumberland, IN (animals); host or cells: rat thoracic aorta, spirally cut strips
T1 sequence (P34978 1-341): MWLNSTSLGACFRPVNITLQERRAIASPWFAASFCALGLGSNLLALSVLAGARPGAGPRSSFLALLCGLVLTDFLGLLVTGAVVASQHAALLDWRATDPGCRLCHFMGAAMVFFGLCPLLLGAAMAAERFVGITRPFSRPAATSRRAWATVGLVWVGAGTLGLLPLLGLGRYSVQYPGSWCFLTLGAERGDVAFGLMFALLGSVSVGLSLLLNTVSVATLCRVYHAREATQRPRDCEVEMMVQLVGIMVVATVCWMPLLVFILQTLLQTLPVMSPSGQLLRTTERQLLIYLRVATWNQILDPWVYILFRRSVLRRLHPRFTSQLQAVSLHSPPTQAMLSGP
Description: The vasoconstrictive activity of U46619 (a stable thromboxane A2 agonist) on thoracic aorta tissue was determined as follows: Male Sprague-Dawley rats (Harlan Industries, Inc., Cumberland, IN) weighing between 250 and 350 gm were stunned and killed by cervical dislocation. A 2-3 cm segment of thoracic aorta was excised, cleaned of any adhering fat and connecting tissue, spirally cut into 2 matched strips, Constantine, supra. (2.0×0.3 cm). Strips were mounted in 10 ml tissue baths filled with the physiological salt solution in which 3×10^-6 M indomethaecin was present. A tension of 1 gm was applied to the strips. Responses of the tissues to drugs were monitored via Grass FT-03 isometric force transducers connected to a Grass Model 7C polygraph (Grass Instruments Co., Quincy, MA).
Some experiments were done in the absence of indomethacin. Concentration-dependent responses to U46619 were constructed in each preparation as described by Van Rossum, supra.
Effective concentration-50 (EC50) values of the agonists were determined graphically from individual plots of percent response versus log concentration. The potency of each agonist was expressed as a pD2 value where pD2 is equal to the negative logarithm of the experimentally determined EC50 value.
Antagonists were quantitated by calculating their pKB or pA2 values according to the methods of Furchgott, Ann. N.Y. Acad. Sci., 139: 553-570 (1967) and Arunlakshana et al., Br. J. Pharmacol., 14: 48-58 (1959). The pKB value is equivalent to the -log of [I]/(CR-1), where pKB is the negative logarithm of the apparent dissociation constant of the antagonist (KB), [I] is the concentration of the antagonist, and CR is the concentration ratio of the agonist EC50 in the presence of antagonist to the agonist EC50 in the absence of antagonist. To determine significant differences between pD2, pKB or pA2 values, a 5% level of significance was used. Arunlakshana plots were analyzed by computer according to the method of Tallarida et al., Manual of Pharmacological Calculations With Computer Programs, 29-31, (1981).

human platelets [2] = conditions: in vitro, background; cited from earlier work
[3] = tested on: human platelets (arachidonic acid-induced aggregation); test: inhibition of arachidonic acid-induced platelet aggregation, human platelet-rich plasma; type: cell-based
Description: (§1) The antiaggregatory and antisecretory activity on human platelets was determined by evaluating the in vitro aggregation and [^14 C]serotonin secretion in human platelet preparations. Blood was taken by venipuncture from normal human volunteers who were reported to be free of medication for at least 10 days before blood drawing. Venous blood samples were mixed with acid-citrate dextrose solution (9:1) and centrifuged at 120×g for 15 minutes at room temperature to obtain platelet-rich plasma, PRP, (Huzoor-Akbar et al., Biochem. Pharmacol., 30: 2013-2020, 1981). The PRP was transferred to polypropylene tubes and stored under an atmosphere of 8% CO2. The remaining blood was centrifuged at 1000×g for 10 minutes to obtain platelet-poor plasma. […] Platelet counts varied between 280,000 to 320,000 per cmm or were adjusted to 300,000 per cmm for the aggregation and secretion experiments. All studies were conducted within 2 hours after PRP recovery.
(§2) For aggregation studies, 0.5 ml of PRP was incubated with drug or vehicle (1-5 μl) for 1 minute at 37° C. before the initiation of aggregation with inducers. […] In all experiments, the minimum concentration of inducer (adenosine diphosphate ADP; epinephrine, E; 15S-hydroxy-11α,9α-epoxymethanoprosta-5Z,13E-dienoic acid, U46619; collagen; and arachidonic acid, AA) which caused maximal irreversible aggregation within each PRP preparation was used. Aggregation was monitored for 4 to 6 minutes after the addition of an inducer and data were presented as a percentage inhibition of either slope or maximal light transmittance changes in the presence of varying drug concentrations.

[4] = biological target: T2, β1-adrenoceptors (guinea pig atria) (Cavia porcellus, UniProt H0W3H1); test: chronotropic response of spontaneously beating guinea pig right atria (β1-adrenergic activity); type: cell-based, guinea pig (male albino Hartley); conditions: read-out: IAR ± SEM (intrinsic activity ratio)
T2 construct: the atria and trachea were quickly removed by standard procedures; tissue Glenn Carr, Columbus, OH (animals); host or cells: guinea pig right atria, spontaneously beating
Description: (§3) The β2 /β1 -adrenergic activity was determined using the following procedure: Male albino Hartley guinea pigs were employed in all experiments. The isolation and procedures for testing of each compound (10^-9 to 3×10^-5 M) with isolated guinea pig atria and trachea were identical with those described by Sober et al., J. Med. Chem., 24: 970, 1981.
Male guinea pigs (Hartley strain, Glenn Carr, Columbus, OH) weighing between 400 and 700 grams were reserpinized (5 mg/kg, i.p.) 12-16 hours before experiments. Animals were sacrificed by a sharp blow to the head and the atria and trachea were quickly removed by standard procedures (The Staff, University of Edinburgh, "Pharmacological Experiments on Isolated Preparation", Livingston, London, pp. 104-111, 1970). Trachea were spirally cut into 2 to 4 matched strips (Constantine, J. Pharm. Pharmac., 17: 34-35, 1965). […]
(§4) Each drug concentration was added only after the effects of the previous concentration reached a maximum and remained constant. […] Responses for agonists were expressed as pD2 values (-log EC50) values and were calculated directly from graphical plots of % maximal response versus log molar drug concentration.

[5] = phenol acidities (pKa) determined spectrophotometrically; type: physicochemical; conditions: phenol; tris(hydroxymethyl)aminomethane buffer; UV
Description: Phenol acidities (pKa) were determined spectrophotometrically, as described by Albert et al., "The determination of Ionization Constants" 3rd Ed., Chapman and Hall, London and New York, 1984, by measuring the absorption as a function of pH in tris(hydroxymethyl)aminomethane buffer. Since the catechols tended to oxidize in basic media the buffers were degassed and flushed with argon prior to use.

[6] = tested on: human platelets (U46619-induced aggregation); test: inhibition of U46619-induced platelet aggregation in presence of aspirin, human platelet-rich plasma; type: cell-based
Description: as §1, §2

[7] = tested on: human platelets (ADP-induced serotonin secretion); test: inhibition of ADP-induced serotonin secretion, human platelet-rich plasma; type: cell-based
Description: as §1, §2
(§5) Secretion data were calculated as the net increase of serotonin released into the supernatant by each inducer and expressed as a percentage of the total radioactivity in platelets Mayo et al., Biochem. Pharmacol., 30: 2237-2241, 1981. The effect of compounds on serotonin release was expressed as the percentage of inhibition of the maximum release by each inducer and plotted against the log molar concentrations of each agent.

[8] = tested on: human platelets (epinephrine-induced aggregation); test: inhibition of the secondary phase of epinephrine-induced platelet aggregation, human platelet-rich plasma; type: cell-based
Description: as §1, §2

[9] = tested on: human platelets (ADP-induced aggregation); test: inhibition of the secondary phase of ADP-induced platelet aggregation, human platelet-rich plasma; type: cell-based
Description: as §1, §2

[10] = tested on: human platelets (epinephrine-induced serotonin secretion); test: inhibition of epinephrine-induced serotonin secretion, human platelet-rich plasma; type: cell-based
Description: as §1, §2, §5

[11] = biological target: T3, β2-adrenoceptors (guinea pig trachea) (Cavia porcellus, UniProt Q8K4Z4); test: relaxation of carbachol-contracted guinea pig tracheal strips (β2-adrenergic activity); type: cell-based, guinea pig (male albino Hartley)
T3 construct: the atria and trachea were quickly removed by standard procedures; tissue Glenn Carr, Columbus, OH (animals); host or cells: guinea pig trachea, spirally cut strips
Description: as §3
Male guinea pigs (Hartley strain, Glenn Carr, Columbus, OH) weighing between 400 and 700 grams were reserpinized (5 mg/kg, i.p.) 12-16 hours before experiments. Animals were sacrificed by a sharp blow to the head and the atria and trachea were quickly removed by standard procedures (The Staff, University of Edinburgh, "Pharmacological Experiments on Isolated Preparation", Livingston, London, pp. 104-111, 1970). Trachea were spirally cut into 2 to 4 matched strips (Constantine, J. Pharm. Pharmac., 17: 34-35, 1965). Spontaneously beating atria and tracheal strips were mounted in 10 ml tissue baths filled with Krebs-Heinsleit solution (millimolar concentrations: NaCl, 118; KCl, 4.7; CaCl2 -2H2 O, 2.5; MgCl2 -6H2 O, 5.0; NaH2 PO4 H2 O, 1.0; NaHCO3, […]; and dextrose, 11) warmed to 37° C. and bubbled with 95% O2 :5% CO2. Tensions of 1 and 3 gm were applied to the atria and trachea, respectively.
Following a minimum 1 hour equilibration period, a concentration of 3×10^-7 M carbachol was administered to the strips.
as §4

[12] = tested on: human platelets (collagen-induced aggregation); test: inhibition of collagen-induced platelet aggregation, human platelet-rich plasma; type: cell-based
Description: as §1, §2

[13] = tested on: human platelets (collagen-induced serotonin secretion); test: inhibition of collagen-induced serotonin secretion, human platelet-rich plasma; type: cell-based
Description: as §1, §2, §5

[14] = background; cited from earlier work
human platelets [15] = test: human platelet aggregation and serotonin release, inducers taken together; type: cell-based; conditions: each inducer
Description: as §1, §2, §5

[16] = tested on: human platelets (arachidonic acid-induced serotonin secretion); test: inhibition of arachidonic acid-induced serotonin secretion, human platelet-rich plasma; type: cell-based
Description: as §1, §2, §5

[17] = tested on: human platelets (U46619-induced serotonin secretion); test: inhibition of U46619-induced serotonin secretion in presence of aspirin, human platelet-rich plasma; type: cell-based
Description: as §1, §2, §5

[18] = cited from earlier work
[19] = read-out: IC50 platelet aggregation
[20] = read-out: pIC50 platelet aggregation (converted)
[21] = read-out: IC50 serotonin secretion
[22] = read-out: pIC50 serotonin secretion (converted)
[23] = read-out: IC50 platelet aggregation (secondary phase)
[24] = read-out: pIC50 platelet aggregation (secondary phase) (converted)

T3 sequence (Q8K4Z4 whole entry): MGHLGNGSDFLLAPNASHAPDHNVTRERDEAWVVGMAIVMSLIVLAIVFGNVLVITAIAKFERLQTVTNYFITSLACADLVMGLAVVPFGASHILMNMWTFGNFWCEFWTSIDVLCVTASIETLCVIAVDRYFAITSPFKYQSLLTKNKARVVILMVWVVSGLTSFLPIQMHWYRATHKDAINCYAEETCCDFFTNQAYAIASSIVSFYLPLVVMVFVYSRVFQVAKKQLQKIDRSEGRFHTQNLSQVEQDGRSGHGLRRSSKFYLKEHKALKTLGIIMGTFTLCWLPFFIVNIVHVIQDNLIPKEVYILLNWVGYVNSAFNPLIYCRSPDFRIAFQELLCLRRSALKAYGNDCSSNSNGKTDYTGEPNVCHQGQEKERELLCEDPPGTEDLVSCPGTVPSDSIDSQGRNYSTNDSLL
T2 sequence (H0W3H1 1-470): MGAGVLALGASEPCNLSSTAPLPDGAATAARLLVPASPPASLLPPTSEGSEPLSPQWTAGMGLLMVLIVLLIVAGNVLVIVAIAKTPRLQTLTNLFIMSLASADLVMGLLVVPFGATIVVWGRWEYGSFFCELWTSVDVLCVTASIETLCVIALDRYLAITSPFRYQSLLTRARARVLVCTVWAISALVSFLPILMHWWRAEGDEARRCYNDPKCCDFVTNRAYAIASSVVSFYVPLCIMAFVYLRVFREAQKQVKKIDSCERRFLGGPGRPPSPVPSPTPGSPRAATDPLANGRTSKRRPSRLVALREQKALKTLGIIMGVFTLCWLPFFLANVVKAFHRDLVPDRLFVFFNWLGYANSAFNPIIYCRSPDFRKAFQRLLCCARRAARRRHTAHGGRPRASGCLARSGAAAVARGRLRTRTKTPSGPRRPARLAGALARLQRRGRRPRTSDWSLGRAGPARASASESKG

For `NCC(O)c1ccc(O)c(O)c1F` (stereo not shown), the “adrenergic receptor activity/selectivity” value (adrenergic receptors) is listed as “selective β-adrenergic agonist”.
In the case of `NCCc1ccc(O)c(O)c1F` [2-fluoro-dopamine], the “adrenergic receptor activity/selectivity” value (adrenergic receptors) is listed as “do not show selectivity for adrenergic receptors”.
In the case of `NCC(O)c1cc(O)c(O)cc1F` (stereo not shown) [6-fluoro analog of norepinephrine], the “adrenergic receptor activity/selectivity” value (adrenergic receptors) is listed as “selective β-adrenergic agonist”.
In the case of `NCCc1cc(O)c(O)cc1F` [6-fluoro-dopamine], the “adrenergic receptor activity/selectivity” value (adrenergic receptors) is listed as “do not show selectivity for adrenergic receptors”.
In the case of `CCCCC[C@H](O)/C=C/[C@@H]1[C@@H](C/C=C\CCCC(=O)O)[C@H]2CO[C@@H]1C2` [Compound U46619, 15S-hydroxy-11α,9α-epoxymethanoprosta-5Z,13E-dienoic acid, reference compound], the EC50 [1] is reported as 6.76 nM.
In the case of `CNC[C@H](O)c1ccc(O)c(O)c1` [R-(-)-epinephrine], the “adrenergic receptor activity/selectivity” value (adrenergic receptors) is listed as “more active than S-(+)-epinephrine on both α- and β-adrenergic receptors”.
In the case of `COc1cc(CC2NCCc3cc(O)c(O)cc32)cc(OC)c1OC` (stereo not shown) [TMQ, trimetoquinol], the “effect on arachidonic acid-mediated platelet aggregation” value (human platelets [2]) is given as “blocks endoperoxide/thromboxane arachidonic acid-mediated in vitro aggregation of human platelets”, the IC50 [3, 19] is given as 1040 nM and the IC50 [3, 20] is given as 1050 nM. It also gave an Emax [4] of 100%, a pKa [5] of 8.77 ± 0.15 and an IC50 [6, 19] of 440 nM. The IC50 [6, 20] was 437 nM, the IC50 [7, 21] was 230 nM and the IC50 [7, 22] was 200 nM. The IC50 [8, 23] was 1730 nM, the IC50 [8, 24] was 1660 nM and the IC50 [9, 23] was 340 nM. For the same compound, the IC50 [9, 24] was 269 nM, the IC50 [10, 21] was 1150 nM and the IC50 [10, 22] was 1020 nM. For the same compound, the EC50 [11] was 57.5 nM, the “agonist activity on tracheal relaxation” value [11] was “nearly equally active as an agonist on tracheal relaxation” and the Emax ([11]; guinea pig, read-out: IAR ± SEM (intrinsic activity ratio)) was 95 ± 1%. It also gave an IC50 [12, 19] of 930 nM, an IC50 [12, 20] of 933 nM and an IC50 [13, 21] of 620 nM. For the same compound, the IC50 [13, 22] was 589 nM, the “side effects” value [14] was “undesirable effect of also increasing the β1 -adrenergic activity which stimulates the heart” and the “inhibition of aggregation and serotonin release” value (human platelets [15]) was “inhibitors of aggregation and serotonin release by each inducer”. For the same compound, the IC50 [16, 21] was 1330 nM, the IC50 [16, 22] was 1260 nM and the IC50 [17, 21] was 720 nM. It also gave an IC50 [17, 22] of 692 nM.
For `CNC[C@H](O)c1ccc(O)c(O)c1` [epinephrine], the “adrenergic receptor activity/selectivity” value (adrenergic receptors) is given as “stimulates both α- and β-adrenergic receptors to about the same degree” and the “side effects” value [14] is given as “tachycardia, elevated blood pressure, headache, and tremors”.
For `CC(C)NCC(O)c1ccc(O)c(O)c1` (stereo not shown) [isoproterenol], the “adrenergic receptor activity/selectivity” value (adrenergic receptors) is listed as “possesses little tissue selectivity and stimulates both β1 - and β2 -adrenergic receptors”, the duration of action ([18]; averaging) is listed as 1.5 to 2 h and the onset of action ([18]; bronchodilator, inhalation) is listed as 2 to 5 min. For the same compound, the “side effects” value [14] was “undesirable tachycardia, increase in cardiac output and an elevation in blood pressure”.
